{
  "source": "paper PMC7315583",
  "about": "“Structure and Dynamics of a Thermostable Alcohol Dehydrogenase from the Antarctic Psychrophile Moraxella sp. TAE123” (ACS Omega, 2020)",
  "target": "MoADH (His-tagged alcohol dehydrogenase from Moraxella sp. TAE123) (Moraxella sp. TAE123, UniProt Q8GIX7)",
  "sequence (Q8GIX7 whole entry)": "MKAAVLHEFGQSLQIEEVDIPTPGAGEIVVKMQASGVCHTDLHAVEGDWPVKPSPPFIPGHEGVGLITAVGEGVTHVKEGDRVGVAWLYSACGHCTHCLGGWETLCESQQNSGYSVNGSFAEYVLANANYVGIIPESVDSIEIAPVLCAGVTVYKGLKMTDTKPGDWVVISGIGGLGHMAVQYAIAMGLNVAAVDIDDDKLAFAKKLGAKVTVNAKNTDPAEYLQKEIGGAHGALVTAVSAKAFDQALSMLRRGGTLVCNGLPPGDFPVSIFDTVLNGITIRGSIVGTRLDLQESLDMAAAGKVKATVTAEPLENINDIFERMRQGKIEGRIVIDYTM",
  "design": "gene adh",
  "conditions": "turnover, fixed 35 mM ethanol, NAD+ varied 0-4.0 mM; pH 7.4; 10-53 °C",
  "data": [
    {"smiles": "CCO", "note": "[ethanol]", "values": [
      {"measurement": "NADH absorbance at 340 nm, microplate reader", "result": "Ethanol oxidation reaction rates have been measured as a function of temperature"}
    ]}
  ]
}
